Test results from US8314143B2, “Synthetic flavonoids and pharmaceutical compositions and therapeutic methods of treatment of HIV infection and other pathologies” (Florida A&M University, priority 2006, dated 2012).
“And” between values parts separate entries of the source, which are not always exact repeats. Identical values can stand only once.

Tests used:
Assay type in all cases: cell-based
PC-3 cells = test: Cytoxicity on PC-3 cells (drug inhibition, cell count); details: for % Inhibition Mean / Cells (×10^4) Mean / % Inhibition / Cells (×10^4): Exp. Nov. 11 to Nov. 17, 2005; for % Inhibition / Cells (×10^4): single replicates
Description: The purified and identified analogs were subjected to in vitro biological testing.

H-9 cells = test: Cytoxicity on H-9 cells (drug inhibition, cell count); details: for H-9 Mean (drug inhibition): Table 4 summary; for % Inhibition Mean / Cells (×10^4) Mean / % Inhibition / Cells (×10^4): Exp. Dec. 05 to Dec. 09, 2005; for % Inhibition / Cells (×10^4): single replicates
Description: (§1) The purified and identified analogs were subjected to in vitro biological testing. […] These three congeners were further evaluated in H9 and PC3 cells. AZT was employed as a positive control in all of these experiments.

MCF-7 cells = test: Cytoxicity on MCF-7 cells (drug inhibition, cell count); parameters: Drug Inhibition on MCF-7 Cells / MCF-7 Mean (drug inhibition) / Drug inhibition on MCF-7 Cells Mean: unit not given here; details: MCF-7 cells; for MCF-7 Mean (drug inhibition): Table 13 summary part; for Drug inhibition on MCF-7 Cells Mean: Table 14 summary part
Description: as §1

[1] = 1 μg/ml, mean, Exp. Nov. 14 to Nov. 18, 2005
[2] = 1 μg/ml, mean, Exp. Sep. 08 to Sep. 12, 2005
[3] = 1 μg/ml, mean, Exp. Sep. 12 to Sep. 16, 2005
[4] = 1 μg/ml, mean, Exp. Sep. 26 to Sep. 30, 2005
[5] = 1 μg/ml, single replicates, Exp. Nov. 14 to Nov. 18, 2005
[6] = 1 μg/ml, single replicates, Exp. Sep. 08 to Sep. 12, 2005
[7] = 1 μg/ml, single replicates, Exp. Sep. 12 to Sep. 16, 2005
[8] = 1 μg/ml, single replicates, Exp. Sep. 26 to Sep. 30, 2005
[9] = 5 μg/ml, mean, Exp. Nov. 14 to Nov. 18, 2005
[10] = 5 μg/ml, mean, Exp. Sep. 08 to Sep. 12, 2005
[11] = 5 μg/ml, mean, Exp. Sep. 12 to Sep. 16, 2005
[12] = 5 μg/ml, mean, Exp. Sep. 26 to Sep. 30, 2005
[13] = 5 μg/ml, single replicates, Exp. Nov. 14 to Nov. 18, 2005
[14] = 5 μg/ml, single replicates, Exp. Sep. 08 to Sep. 12, 2005
[15] = 5 μg/ml, single replicates, Exp. Sep. 12 to Sep. 16, 2005
[16] = 5 μg/ml, single replicates, Exp. Sep. 26 to Sep. 30, 2005
[17] = 10 μg/ml, mean, Exp. Nov. 14 to Nov. 18, 2005
[18] = 10 μg/ml, mean, Exp. Sep. 08 to Sep. 12, 2005
[19] = 10 μg/ml, mean, Exp. Sep. 12 to Sep. 16, 2005
[20] = 10 μg/ml, mean, Exp. Sep. 26 to Sep. 30, 2005
[21] = 10 μg/ml, single replicates, Exp. Nov. 14 to Nov. 18, 2005
[22] = 10 μg/ml, single replicates, Exp. Sep. 08 to Sep. 12, 2005
[23] = 10 μg/ml, single replicates, Exp. Sep. 12 to Sep. 16, 2005
[24] = 10 μg/ml, single replicates, Exp. Sep. 26 to Sep. 30, 2005

## Cc1cn([C@H]2C[C@H](N=[N+]=[N-])[C@@H](CO)O2)c(=O)[nH]c1=O [AZT, reference compound]
PC-3 cells; 1 μg/ml, Table 7
  Drug Inhibition on PC-3 cells: 17.27
PC-3 cells; 1 μg/ml, Table 10
  Drug Inhibition on PC-3 cells: 13.69
PC-3 cells; 1 μg/ml
  % Inhibition Mean: 13.69%
  Cells (×10^4) Mean: 84.58 ×10^4
  % Inhibition: 14.29% and 12.76% and 14.03%
  Cells (×10^4): 84.0 ×10^4 and 85.5 ×10^4 and 84.3 ×10^4
PC-3 cells; 5 μg/ml, Table 7
  Drug Inhibition on PC-3 cells: 43.23
PC-3 cells; 5 μg/ml
  Cells (×10^4) Mean: 17.33 ×10^4
  Cells (×10^4): 70.5 ×10^4 and 72.3 ×10^4 and 71.3 ×10^4
PC-3 cells; 10 μg/ml, Table 7
  Drug Inhibition on PC-3 cells: 59.67
PC-3 cells; 10 μg/ml, Table 10
  Drug Inhibition on PC-3 cells: 37.16
PC-3 cells; 10 μg/ml
  % Inhibition Mean: 37.16%
  Cells (×10^4) Mean: 61.58 ×10^4
  % Inhibition: 37.24% and 37.50% and 36.73%
  Cells (×10^4): 61.5 ×10^4 and 61.3 ×10^4 and 62.0 ×10^4
H-9 cells; 1 μg/ml
  H-9 Mean (drug inhibition): 18.74
  % Inhibition Mean: 18.74%
  Cells (×10^4) Mean: 40.83 ×10^4
  % Inhibition: 17.91% and 25.37% and 12.94%
  Cells (×10^4): 41.3 ×10^4 and 37.5 ×10^4 and 43.8 ×10^4
H-9 cells; 5 μg/ml
  H-9 Mean (drug inhibition): 38.47
  % Inhibition Mean: 38.47%
  Cells (×10^4) Mean: 30.92 ×10^4
  % Inhibition: 39.30% and 40.30% and 35.82%
  Cells (×10^4): 30.5 ×10^4 and 30.0 ×10^4 and 32.3 ×10^4
H-9 cells; 10 μg/ml
  H-9 Mean (drug inhibition): 49.75
  % Inhibition Mean: 49.75%
  Cells (×10^4) Mean: 25.25 ×10^4
  % Inhibition: 48.26% and 50.25% and 50.75%
  Cells (×10^4): 26.0 ×10^4 and 25.0 ×10^4 and 24.8 ×10^4
MCF-7 cells; 1 μg/ml, Table 8 summary
  Drug Inhibition on MCF-7 Cells: 6.92
MCF-7 cells; 1 μg/ml, Table 12 summary
  Drug Inhibition on MCF-7 Cells: 26.55
MCF-7 cells; 1 μg/ml
  MCF-7 Mean (drug inhibition): 25.77
  Drug inhibition on MCF-7 Cells Mean: 21.53
MCF-7 cells; [1]
  % Inhibition Mean: 6.92%
  Cells (×10^4) Mean: 53.83 ×10^4
MCF-7 cells; [2]
  % Inhibition Mean: 25.77%
  Cells (×10^4) Mean: 52.33 ×10^4
MCF-7 cells; [3]
  % Inhibition Mean: 21.53%
  Cells (x10^4) Mean: 45.25 x10^4
MCF-7 cells; [4]
  % Inhibition Mean: 26.55%
  Cells (×10^4) Mean: 36.42 ×10^4
MCF-7 cells; [5]
  % Inhibition: 8.36% and 4.47% and 7.93%
  Cells (×10^4): 53.0 ×10^4 and 55.3 ×10^4 and 53.3 ×10^4
MCF-7 cells; [6]
  % Inhibition: 27.66% and 23.76% and 25.89%
  Cells (×10^4): 51.0 ×10^4 and 53.8 ×10^4 and 52.3 ×10^4
MCF-7 cells; [7]
  % Inhibition: 22.83% and 20.23% and 21.53%
  Cells (x10^4): 44.5 x10^4 and 46.0 x10^4 and 45.3 x10^4
MCF-7 cells; [8]
  % Inhibition: 28.40% and 25.88% and 25.38%
  Cells (×10^4): 35.5 ×10^4 and 36.8 ×10^4 and 37.0 ×10^4
MCF-7 cells; 5 μg/ml, Table 8 summary
  Drug Inhibition on MCF-7 Cells: 38.62
MCF-7 cells; 5 μg/ml, Table 12 summary
  Drug Inhibition on MCF-7 Cells: 46.86
MCF-7 cells; 5 μg/ml
  MCF-7 Mean (drug inhibition): 39.36
  Drug inhibition on MCF-7 Cells Mean: 50.43
MCF-7 cells; [9]
  % Inhibition Mean: 38.62%
  Cells (×10^4) Mean: 35.50 ×10^4
MCF-7 cells; [10]
  % Inhibition Mean: 39.36%
  Cells (×10^4) Mean: 42.75 ×10^4
MCF-7 cells; [11]
  % Inhibition Mean: 50.43%
  Cells (x10^4) Mean: 28.58 x10^4
MCF-7 cells; [12]
  % Inhibition Mean: 46.86%
  Cells (×10^4) Mean: 26.35 ×10^4
MCF-7 cells; [13]
  % Inhibition: 39.91% and 40.35% and 35.59%
  Cells (×10^4): 34.8 ×10^4 and 34.5 ×10^4 and 37.3 ×10^4
MCF-7 cells; [14]
  % Inhibition: 40.07% and 37.94%
  Cells (×10^4): 42.3 ×10^4 (2×) and 43.8 ×10^4
MCF-7 cells; [15]
  % Inhibition: 47.98% and 51.88% and 51.45%
  Cells (x10^4): 30.0 x10^4 and 27.8 x10^4 and 28.0 x10^4
MCF-7 cells; [16]
  % Inhibition: 49.98% and 45.04% and 45.55%
  Cells (×10^4): 24.8 ×10^4 and 27.3 ×10^4 and 27.0 ×10^4
MCF-7 cells; 10 μg/ml, Table 8 summary
  Drug Inhibition on MCF-7 Cells: 61.1
MCF-7 cells; 10 μg/ml, Table 12 summary
  Drug Inhibition on MCF-7 Cells: 65.21
MCF-7 cells; 10 μg/ml
  MCF-7 Mean (drug inhibition): 57.45
  Drug inhibition on MCF-7 Cells Mean: 65.03
MCF-7 cells; [17]
  % Inhibition Mean: 61.10%
  Cells (×10^4) Mean: 22.50 ×10^4
MCF-7 cells; [18]
  % Inhibition Mean: 57.45%
  Cells (×10^4) Mean: 30.00 ×10^4
MCF-7 cells; [19]
  % Inhibition Mean: 65.03%
  Cells (x10^4) Mean: 20.17 x10^4
MCF-7 cells; [20]
  % Inhibition Mean: 65.21%
  Cells (×10^4) Mean: 17.25 ×10^4
MCF-7 cells; [21]
  % Inhibition: 61.53% and 60.23%
  Cells (×10^4): 22.3 ×10^4 (2×) and 23.0 ×10^4
MCF-7 cells; [22]
  % Inhibition: 57.45%
  Cells (×10^4): 30.0 ×10^4
MCF-7 cells; [23]
  % Inhibition: 69.65% and 62.72%
  Cells (x10^4): 17.5 x10^4 and 21.5 x10^4 (2×)
MCF-7 cells; [24]
  % Inhibition: 65.21% and 63.19% and 67.23%
  Cells (×10^4): 17.3 ×10^4 and 18.3 ×10^4 and 16.3 ×10^4
MCF-7 cells; drug 1 μg/ml, mean of replicates
  Cells (×10^4) Mean: 43.08 ×10^4
MCF-7 cells; drug 1 μg/ml, mean of replicates, vs 2% DMSO
  % Inhibition Mean: 15.38%
MCF-7 cells; drug 1 μg/ml, single replicate count
  Cells (×10^4): 43.3 ×10^4 (2×) and 42.8 ×10^4
MCF-7 cells; drug 1 μg/ml, single replicate, vs 2% DMSO
  % Inhibition: 15.06% and 16.04%
MCF-7 cells; drug 5 μg/ml, mean of replicates
  Cells (×10^4) Mean: 32.08 ×10^4
MCF-7 cells; drug 5 μg/ml, mean of replicates, vs 2% DMSO
  % Inhibition Mean: 36.99%
MCF-7 cells; drug 5 μg/ml, single replicate count
  Cells (×10^4): 31.5 ×10^4 and 32.3 ×10^4 and 32.5 ×10^4
MCF-7 cells; drug 5 μg/ml, single replicate, vs 2% DMSO
  % Inhibition: 38.13% and 36.66% and 36.17%
MCF-7 cells; drug 10 μg/ml, mean of replicates
  Cells (×10^4) Mean: 24.08 ×10^4
MCF-7 cells; drug 10 μg/ml, mean of replicates, vs 2% DMSO
  % Inhibition Mean: 52.7%
MCF-7 cells; drug 10 μg/ml, single replicate count
  Cells (×10^4): 22.0 ×10^4 and 25.5 ×10^4 and 24.8 ×10^4
MCF-7 cells; drug 10 μg/ml, single replicate, vs 2% DMSO
  % Inhibition: 56.79% and 49.92% and 51.39%
